Experimental data from ChEMBL document CHEMBL1201862, “PubChem BioAssay data set” (2004).
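These data come from cells grown in 96-well plates and exposed to compound for 48 hours at five concentrations. Abbreviation: GI50, concentration required for 50% inhibition of growth.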 Active and inactive are the calls of the source. Cut-off read from the data, not from the text of the source: active = GI50 up to about 1.1 µM and inactive = higher.

Assays:
Test in all cases: NCI anticancer screen, dose series, 48 h
[1] = test system: 786-0
[2] = test system: A498
[3] = test system: A549
[4] = test system: ACHN
[5] = test system: BT-549
[6] = test system: DU-145
[7] = test system: EKVX
[8] = test system: HCT-116
[9] = test system: HCT-15
[10] = test system: HL-60
[11] = test system: HOP-62
[12] = test system: HOP-92
[13] = test system: HT-29
[14] = test system: Hs-578T
[15] = test system: IGROV-1
[16] = test system: K562
[17] = test system: KM12
[18] = test system: LOX IMVI
[19] = test system: M14
[20] = test system: MCF7
[21] = test system: MDA-MB-231
[22] = test system: MDA-MB-435
[23] = test system: MDA-N
[24] = test system: MOLT-4
[25] = test system: Malme-3M
[26] = test system: NCI-H226
[27] = test system: NCI-H460
[28] = test system: NCI-H522
[29] = test system: NCI/ADR-RES
[30] = test system: OVCAR-3
[31] = test system: OVCAR-4
[32] = test system: OVCAR-5
[33] = test system: OVCAR-8
[34] = test system: PC-3
[35] = test system: RPMI-8226
[36] = test system: SF-268
[37] = test system: SF-295
[38] = test system: SF-539
[39] = test system: SK-MEL-28
[40] = test system: SK-MEL-2
[41] = test system: SK-OV-3
[42] = test system: SN12C
[43] = test system: SNB-19
[44] = test system: SNB-75
[45] = test system: SR
[46] = test system: SW-620
[47] = test system: TK-10
[48] = test system: U-251
[49] = test system: UACC-257
[50] = test system: UACC-62
[51] = test system: UO-31
[52] = test system: CAKI-1
[53] = test system: CCRF-CEM
[54] = test system: COLO 205
[55] = test system: HCC 2998
[56] = test system: NCI-H23
[57] = test system: RXF 393
[58] = test system: SK-MEL-5

Measured: GI50

CC1=CC2=C(C(N)=O)C(=O)OC2(C)C(c2ccccc2)C1 (configuration not stated)
inactive: [1] > 100 µM | [2] > 100 µM | [3] > 100 µM | [4] > 100 µM | [5] > 100 µM | [6] > 100 µM | [7] > 100 µM | [8] > 100 µM | [10] > 100 µM | [11] > 100 µM | [12] > 100 µM | [13] > 100 µM | [14] > 100 µM | [15] > 100 µM | [16] > 100 µM | [17] > 100 µM | [18] > 100 µM | [19] > 100 µM | [20] > 100 µM | [21] > 100 µM | [22] > 100 µM | [23] > 100 µM | [24] > 100 µM | [25] > 100 µM | [26] > 100 µM | [27] > 100 µM | [28] > 100 µM | [29] > 100 µM | [30] > 100 µM | [31] > 100 µM | [32] > 100 µM | [33] > 100 µM | [34] > 100 µM | [35] > 100 µM | [36] > 100 µM | [37] > 100 µM | [38] > 100 µM | [39] > 100 µM | [40] > 100 µM | [41] > 100 µM | [42] > 100 µM | [43] > 100 µM | [44] 3.03 µM | [45] > 100 µM | [46] > 100 µM | [47] > 100 µM | [48] > 100 µM | [49] > 100 µM | [50] > 100 µM | [51] > 100 µM
> 100 µM: [9]

COc1ccc2cc(NC(=O)N/N=C\c3ccc(Cl)cc3)ccc2c1
> 100 µM: [9]
inactive: [1] 40 µM | [3] > 100 µM | [4] > 100 µM | [5] > 100 µM | [52] > 100 µM | [53] > 100 µM | [54] > 100 µM | [6] > 100 µM | [7] > 100 µM | [55] > 100 µM | [8] > 100 µM | [10] > 100 µM | [11] 27.5 µM | [12] > 100 µM | [13] > 100 µM | [14] 24 µM | [15] 88.7 µM | [16] > 100 µM | [17] > 100 µM | [18] > 100 µM | [19] > 100 µM | [20] > 100 µM | [21] 27.5 µM | [22] 69.8 µM | [23] > 100 µM | [24] > 100 µM | [25] 34 µM | [26] > 100 µM | [56] > 100 µM | [27] 50 µM | [28] > 100 µM | [29] 86.3 µM | [30] > 100 µM | [31] 27 µM | [32] > 100 µM | [33] 96.8 µM | [34] > 100 µM | [35] > 100 µM | [36] 44.1 µM | [37] 59.6 µM | [38] 43.1 µM | [39] > 100 µM | [40] > 100 µM | [41] > 100 µM | [42] > 100 µM | [43] 46.2 µM | [44] 72.3 µM | [45] > 100 µM | [46] > 100 µM | [47] > 100 µM | [48] 41.2 µM | [49] > 100 µM | [50] 40.3 µM | [51] > 100 µM

COC(=O)/C(=N\N)C(C(=O)C(=O)Nc1cccc([N+](=O)[O-])c1)c1nc2ccc(C(=O)c3ccccc3)cc2nc1O (configuration not stated)
inactive: [1] > 100 µM | [3] 61.4 µM | [4] > 100 µM | [5] > 100 µM | [52] > 100 µM | [53] 22.3 µM | [54] > 100 µM | [6] > 100 µM | [7] > 100 µM | [55] > 100 µM | [8] > 100 µM | [10] 32.5 µM | [11] 73.1 µM | [12] 35.7 µM | [13] > 100 µM | [14] > 100 µM | [15] > 100 µM | [17] > 100 µM | [18] > 100 µM | [19] > 100 µM | [20] 54.2 µM | [21] > 100 µM | [22] > 100 µM | [23] > 100 µM | [24] 15 µM | [26] > 100 µM | [56] > 100 µM | [27] > 100 µM | [28] 72.1 µM | [29] > 100 µM | [30] > 100 µM | [31] 40.2 µM | [32] > 100 µM | [33] > 100 µM | [34] 84.5 µM | [57] 16.9 µM | [36] > 100 µM | [37] 96.4 µM | [38] > 100 µM | [39] > 100 µM | [40] > 100 µM | [58] 71 µM | [41] 93.8 µM | [42] > 100 µM | [43] > 100 µM | [44] > 100 µM | [46] > 100 µM | [47] 39.9 µM | [48] > 100 µM | [49] > 100 µM | [50] 96.2 µM | [51] 37.5 µM
> 100 µM: [9]

CC(C)(CN1CCCCC1)C(/C=C/c1ccccc1)=N\NC(=O)N/N=C(/C=C/c1ccccc1)C(C)(C)CN1CCCCC1
active: [55] 0.543 µM | [10] 1.08 µM | [13] 1.07 µM | [45] 0.508 µM
inactive: [1] 1.46 µM | [2] 1.5 µM | [3] 2.43 µM | [4] 3.32 µM | [5] 1.77 µM | [52] 2.27 µM | [53] 1.19 µM | [54] 1.44 µM | [7] 6.84 µM | [8] 1.58 µM | [11] 1.85 µM | [12] 1.75 µM | [14] 2.67 µM | [15] 2.51 µM | [16] 1.19 µM | [17] 2 µM | [18] 1.8 µM | [19] 1.71 µM | [20] 1.71 µM | [21] 1.36 µM | [22] 1.51 µM | [23] 1.63 µM | [24] 1.67 µM | [25] 2.04 µM | [26] 2.37 µM | [56] 2.08 µM | [27] 1.38 µM | [28] 1.83 µM | [29] 1.74 µM | [30] 2.34 µM | [31] 3.93 µM | [32] 4.29 µM | [33] 1.78 µM | [34] 1.97 µM | [35] 1.27 µM | [36] 3.24 µM | [37] 1.69 µM | [39] 1.68 µM | [40] 2.01 µM | [58] 1.72 µM | [41] 3.32 µM | [42] 1.89 µM | [43] 1.91 µM | [44] 1.38 µM | [46] 1.7 µM | [47] 1.75 µM | [48] 1.63 µM | [49] 1.71 µM | [50] 1.54 µM | [51] 1.13 µM
1.37 µM: [9]

COc1cc(C2c3cc4c(cc3OC(O)C2C)OCO4)cc(OC)c1OC (configuration not stated)
active: [1] 0.507 µM | [2] 0.483 µM | [3] 0.381 µM | [4] 0.792 µM | [52] 0.612 µM | [53] 0.229 µM | [54] 0.315 µM | [6] 0.414 µM | [55] 0.61 µM | [8] 0.349 µM | [10] 0.172 µM | [11] 0.306 µM | [12] 0.562 µM | [13] 0.346 µM | [14] 0.31 µM | [15] 0.553 µM | [16] 0.142 µM | [17] 0.347 µM | [18] 0.69 µM | [19] 0.376 µM | [20] 0.29 µM | [21] 0.532 µM | [22] 0.0377 µM | [23] 0.0887 µM | [24] 0.473 µM | [25] 0.431 µM | [26] 0.708 µM | [56] 0.59 µM | [27] 0.355 µM | [28] 0.207 µM | [29] 0.214 µM | [30] 0.243 µM | [33] 0.245 µM | [34] 0.228 µM | [35] 0.264 µM | [57] 0.244 µM | [37] 0.324 µM | [38] 0.294 µM | [39] 0.863 µM | [40] 0.486 µM | [58] 0.272 µM | [41] 0.414 µM | [42] 0.446 µM | [43] 0.434 µM | [44] 0.244 µM | [45] 0.2 µM | [46] 0.292 µM | [48] 0.33 µM | [50] 0.349 µM | [51] 0.695 µM
inactive: [5] 1.14 µM | [7] 1.53 µM | [31] 2.8 µM | [32] 4.78 µM | [36] 1.51 µM | [47] 34.9 µM | [49] 9.68 µM
0.403 µM: [9]
